According to patent US4948782A, “A method of promoting the growth of domestic animals with erythromycin derivative containing composition” (Kitasato Kenkyusho, priority 1987, dated 1990):
Values after ≈ are worked out from the molar mass of the structure shown. Where two headings read alike, the source gives them in different places.

Key:
Format in all cases: cell-based
[1] = test system: Staphylococcus aureus ATCC 6538P; test: MIC, Staphylococcus aureus ATCC 6538P (SA(1)); conditions: for MIC: Staphylococcus aureus, ATCC6538P, read-out: MIC SA (1)
Excerpt: (§1) The minimum inhibitory concentrations (MIC: mcg/ml) of the erythromycin derivatives of the present invention and the control erythromycin derivative (*) as the known growth promoting agent on typical test bacteria are shown in the following Tables 1 to 5.
SA(1): Staphylococcus aureus ATCC 6538P

[2] = test system: Staphylococcus aureus FDA 209P; test: MIC, Staphylococcus aureus FDA 209P (SA(2)); conditions: Staphylococcus aureus, FDA209P, read-out: MIC SA (2)
Excerpt: as §1
SA(2): Staphylococcus aureus FDA 209P

Bacillus subtilis = test: MIC, Bacillus subtilis (BS); conditions: for MIC: read-out: MIC BS
Bacillus cereus IFO 3001 = test: MIC, Bacillus cereus IFO 3001 (BC); conditions: for MIC: Bacillus cereus
Escherichia coli NIHJ = test: MIC, Escherichia coli NIHJ (EC)
[3] = test system: Klebsiella pneumoniae ATCC 10031; test: MIC, Klebsiella pneumoniae ATCC 10031 (KP)
[4] = Staphylococcus aureus ATCC 6538P
[5] = IFO3001, Bacillus cereus IFO 3001, read-out: MIC BC
[6] = ATCC10031, Klebsiella pneumoniae ATCC 10031, read-out: MIC KP

MIC [1, 4] [µg/mL]	MIC ([2]; Staphylococcus aureus FDA 209P) [µg/mL]	MIC (Bacillus subtilis) [µg/mL]	MIC (Bacillus cereus IFO 3001; [5]) [µg/mL]	MIC (Escherichia coli NIHJ) [µg/mL]	MIC [3, 6] [µg/mL]	MIC SA (1) [1, 4] [µg/mL]	MIC BS (Bacillus subtilis) [µg/mL]	MIC BC (Bacillus cereus IFO 3001; Bacillus cereus IFO 3001) [µg/mL]	MIC EC (Escherichia coli NIHJ) [µg/mL]	MIC KP ([3]; Klebsiella pneumoniae ATCC 10031) [µg/mL]	Compound	MIC [1] [µg/mL]	MIC [2] [µg/mL]	MIC (Bacillus cereus IFO 3001; IFO3001, read-out: MIC BC) [µg/mL]	MIC ([3]; Klebsiella pneumoniae, ATCC10031, read-out: MIC KP) [µg/mL]
> 100	> 100	> 100	> 100	> 100	> 100						CCC1OC(=O)C(C)C(OC2CC(C)(OC)C(O)C(C)O2)C(C)C(OC2OC(C)CC(NC)C2O)C2(C)CC(C)=C(O2)C(C)C(O)C1(C)O (stereo not drawn) [Compound 8]				
> 100	> 100	> 100	> 100	> 100	> 100						CCC1OC(=O)C(C)C(OC2CC(C)(OC)C(O)C(C)O2)C(C)C(OC2OC(C)CC(N)C2O)C2(C)CC(C)=C(O2)C(C)C(O)C1(C)O (stereo not drawn) [Compound 9]				
> 100	> 100	> 100	> 100	> 100	> 100						CCC1OC(=O)C(C)C(OC2CC(C)(OC)C(O)C(C)O2)C(C)C(OC2OC(C)CC(N(C)CC)C2O)C2(C)CC(C)=C(O2)C(C)C(O)C1(C)O (stereo not drawn) [Compound 10]				
> 100	> 100	> 100	> 100	> 100	> 100						CCCCN(C)C1CC(C)OC(OC2C(C)C(OC3CC(C)(OC)C(O)C(C)O3)C(C)C(=O)OC(CC)C(C)(O)C(O)C(C)C3=C(C)CC2(C)O3)C1O (stereo not drawn) [Compound 11]				
> 100	> 100	> 100	> 100	> 100	> 100						CCC1OC(=O)C(C)C(OC2CC(C)(OC)C(O)C(C)O2)C(C)C(OC2OC(C)CC([N+](C)(CC)CC)C2O)C2(C)CC(C)=C(O2)C(C)C(O)C1(C)O (stereo not drawn) [Compound 12]				
						> 100	> 100	> 100	> 100	> 100	CCC1OC(=O)C(C)C(OC2CC(C)(OC)C(O)C(C)O2)C(C)C(OC2OC(C)CC([N+](C)(C)CC)C2O)C2(C)CC(C)=C(O2)C(C)C(O)C1(C)O (stereo not drawn) [Compound 19]				
> 100	> 100	> 100	> 100	> 100	> 100						CCC1OC(=O)C(C)C(OC2CC(C)(OC)C(O)C(C)O2)C(C)C(OC2OC(C)CC(N(CC)CC)C2O)C2(C)CC(C)=C(O2)C(C)C(O)C1(C)O (stereo not drawn) [Compound 20]				
> 100	> 100	> 100	> 100	> 100	> 100						CCNC1CC(C)OC(OC2C(C)C(OC3CC(C)(OC)C(O)C(C)O3)C(C)C(=O)OC(CC)C(C)(O)C(O)C(C)C3=C(C)CC2(C)O3)C1O (stereo not drawn) [Compound 21]				

More lines, now with the values behind:

Compound	MIC [1, 4] [µg/mL]	MIC ([2]; Staphylococcus aureus FDA 209P) [µg/mL]	MIC (Bacillus subtilis) [µg/mL]	MIC (Bacillus cereus IFO 3001; [5]) [µg/mL]	MIC (Escherichia coli NIHJ) [µg/mL]	MIC [3, 6] [µg/mL]	MIC SA (1) [1, 4] [µg/mL]	MIC BS (Bacillus subtilis) [µg/mL]	MIC BC (Bacillus cereus IFO 3001; Bacillus cereus IFO 3001) [µg/mL]	MIC EC (Escherichia coli NIHJ) [µg/mL]	MIC KP ([3]; Klebsiella pneumoniae ATCC 10031) [µg/mL]	MIC [1] [µg/mL]	MIC [2] [µg/mL]	MIC (Bacillus cereus IFO 3001; IFO3001, read-out: MIC BC) [µg/mL]	MIC ([3]; Klebsiella pneumoniae, ATCC10031, read-out: MIC KP) [µg/mL]
CC[C@H]1OC(=O)[C@H](C)[C@@H](O[C@H]2C[C@@](C)(OC)[C@@H](O)[C@H](C)O2)[C@H](C)[C@@H](O[C@@H]2O[C@H](C)C[C@H](N(C)C)[C@H]2O)[C@@]2(C)CC(C)C(O2)[C@H](C)[C@@H](O)[C@]1(C)O (stereo partly drawn) [*1, reference compound]	12.5 (≈ 17.4 µM)	12.5 (≈ 17.4 µM)	6.25 (≈ 8.71 µM)	12.5 (≈ 17.4 µM)	> 100	> 100									
CC[C@H]1OC(=O)[C@H](C)[C@@H](O[C@H]2C[C@@](C)(OC)[C@@H](O)[C@H](C)O2)[C@H](C)[C@@H](O[C@@H]2O[C@H](C)C[C@H](N(C)C)[C@H]2O)[C@@]2(C)CC(C)C3(O[C@@]1(C)[C@H](O)[C@H]3C)O2 (stereo partly drawn) [*2 (EM202), Anhydroerythromycin A, reference compound]	12.5 (≈ 17.5 µM)	12.5 (≈ 17.5 µM)													
CC[C@H]1OC(=O)[C@H](C)[C@@H](O[C@H]2C[C@@](C)(OC)[C@@H](O)[C@H](C)O2)[C@H](C)[C@@H](O[C@@H]2O[C@H](C)C[C@H](N(C)C)[C@H]2O)[C@](C)(O)C[C@@H](C)C(=O)[C@H](C)[C@@H](O)[C@]1(C)O [*3, Erythromycin A, reference compound]			0.2 (≈ 0.273 µM)		25 (≈ 34.1 µM)							0.2 (≈ 0.273 µM)	0.4 (≈ 0.545 µM)	0.2 (≈ 0.273 µM)	6.25 (≈ 8.52 µM)
CCC1OC(=O)C(C)C(OC2CC(C)(OC)C(O)C(C)O2)C(C)C(OC2OC(C)CC([N+](C)(C)C)C2O)C2(C)CC(C)=C(O2)C(C)C(O)C1(C)O (stereo not drawn) [Compound 1]	> 100	> 100	> 100	> 100	> 100	> 100									
CCC1OC(=O)C(C)C(OC2CC(C)(OC)C(O)C(C)O2)C(C)C(OC2OC(C)CC([N+](C)(C)C)C2O)C2(C)CC(C)=C(O2)C(C)C(OC(C)=O)C1(C)OC(C)=O (stereo not drawn) [Compound 2]	100	100	100	100	> 100	> 100									
CCC1OC(=O)C(C)C(OC2CC(C)(OC)C(O)C(C)O2)C(C)C(OC2OC(C)CC([N+](C)(C)C)C2O)C2(C)CC(C)=C(O2)C(C)C(OS(C)(=O)=O)C1(C)O (stereo not drawn) [Compound 3]	> 100	> 100	> 100	> 100	> 100	> 100									
CCC1OC(=O)C(C)C(OC2CC(C)(OC)C(OC=O)C(C)O2)C(C)C(OC2OC(C)CC([N+](C)(C)C)C2O)C2(C)CC(C)=C(O2)C(C)C(OS(C)(=O)=O)C1(C)O (stereo not drawn) [Compound 4]	> 100	> 100	> 100	> 100	> 100	> 100									
CCC1OC(=O)C(C)C(OC2CC(C)(OC)C(O)C(C)O2)C(C)C(OC2OC(C)CC([N+](C)(C)CC)C2O)C2(C)CC(C)=C(O2)C(C)C(O)C1(C)O (stereo not drawn) [Compound 5]	> 100	> 100	> 100	> 100	> 100	> 100									
CCC[N+](C)(C)C1CC(C)OC(OC2C(C)C(OC3CC(C)(OC)C(O)C(C)O3)C(C)C(=O)OC(CC)C(C)(O)C(O)C(C)C3=C(C)CC2(C)O3)C1O (stereo not drawn) [Compound 6]	> 100	> 100	> 100	> 100	> 100	> 100									
CCC1OC(=O)C(C)C(OC2CC(C)(OC)C(O)C(C)O2)C(C)C(OC2OC(C)CC([N+](C)(C)C)C2OC(C)=O)C2(C)CC(C)=C(O2)C(C)C(O)C1(C)O (stereo not drawn) [Compound 7]	100	> 100	> 100	> 100	> 100	> 100									
CCC1OC(=O)C(C)C(OC2CC(C)(OC)C(O)C(C)O2)C(C)C(OC2OC(C)CC(N3CCCC3)C2O)C2(C)CC(C)=C(O2)C(C)C(O)C1(C)O (stereo not drawn) [Compound 13]	> 100	> 100	> 100	> 100	> 100	> 100									
CCC1OC(=O)C(C)C(OC2CC(C)(OC)C(O)C(C)O2)C(C)C(OC2OC(C)CC([N+]3(C)CCCC3)C2O)C2(C)CC(C)=C(O2)C(C)C(O)C1(C)O (stereo not drawn) [Compound 14]	> 100	> 100	> 100	> 100	> 100	> 100									
CCC1OC(=O)C(C)C(OC2CC(C)(OC)C(O)C(C)O2)C(C)C(OC2OC(C)CC([N+](C)(C)CCO)C2O)C2(C)CC(C)=C(O2)C(C)C(O)C1(C)O (stereo not drawn) [Compound 15]	> 100	> 100	> 100	> 100	> 100	> 100									
C=CC[N+](C)(C)C1CC(C)OC(OC2C(C)C(OC3CC(C)(OC)C(O)C(C)O3)C(C)C(=O)OC(CC)C(C)(O)C(O)C(C)C3=C(C)CC2(C)O3)C1O (stereo not drawn) [Compound 16]	100	> 100	> 100	> 100	> 100	> 100									
CCC1OC(=O)C(C)C(OC2CC(C)(OC)C(O)C(C)O2)C(C)C(OC2OC(C)CC([N+](C)(C)Cc3ccccc3)C2O)C2(C)CC(C)=C(O2)C(C)C(O)C1(C)O (stereo not drawn) [Compound 17]	100	100	50	100	> 100	> 100									
CCC1OC(=O)C(C)C(OC2CC(C)(OC)C(O)C(C)O2)C(C)C(OC2OC(C)CC([N+](C)(C)CC)C2O)C2(C)CC(C)=C(O2)C(C)C(OS(C)(=O)=O)C1(C)O (stereo not drawn) [Compound 18]	> 100	> 100	> 100	> 100	> 100	> 100									
CCC1OC(=O)C(C)C(OC2CC(C)(OC)C(O)C(C)O2)C(C)C(OC2OC(C)CC(N3CCCCC3)C2O)C2(C)CC(C)=C(O2)C(C)C(O)C1(C)O (stereo not drawn) [Compound 22]	> 100	> 100	> 100	> 100	> 100	> 100									
CCC1OC(=O)C(C)C(OC2CC(C)(OC)C(O)C(C)O2)C(C)C(OC2OC(C)CC([N+](CC)(CC)CC)C2O)C2(C)CC(C)=C(O2)C(C)C(O)C1(C)O (stereo not drawn) [Compound 23]	> 100	> 100	> 100	> 100	> 100	> 100									
CCC1OC(=O)C(C)C(OC2CC(C)(OC)C(O)C(C)O2)C(C)C(OC2OC(C)CC([N+](C)(C)CC3CC3)C2O)C2(C)CC(C)=C(O2)C(C)C(O)C1(C)O (stereo not drawn) [Compound 50]	100	> 100	> 100		> 100	> 100									
